Data on one compound can be found in patent publication US20020150626A1, “Lipid-protein-sugar particles for delivery of nucleic acids” (priority 2000, published 2002).

Series [1] is described as follows: Median lethal dose of bupivacaine (literature). It is filed as in vivo. Conditions: in a 350 g rat.
The conditions of series [2]: rat, in vivo.
Experimental: The presence of functional deficits in the un-injected extremity was used as a measure of the degree of systemically distributed local anesthetic (i.e., toxicity). Thermal latency (the length of time that a rat would leave his paw on the hotplate) was measured in the un-injected leg at predetermined intervals, in rats who received 10% bupivacaine LPSPs or 50% bupivacaine microspheres (FIG. 4).
For series [3] the following is noted: adult rats; Kohane et al. 1998; cited from earlier work.

Read-outs that look alike come from different tables or passages of the source.

For `CCCCN1CCCCC1C(=O)Nc1c(C)cccc1C` (stereo not drawn) [bupivacaine in solution, bupivacaine], the median lethal dose is 10.5 mg in series [1] and 30 ± 5 mg/kg in series [3]. Besides, the “signs of systemic toxicity (contralateral thermal latency)” value in series [2] is on record as “one of those rats had severe signs of systemic toxicity”.
